ChEMBL document CHEMBL1201862, “PubChem BioAssay data set” (2004)
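48-hour exposure; five concentrations; linearly interpolated endpoints. GI50 = concentration required for 50% inhibition of growth.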 Activity calls are given as the source filed them. No stated cut-off is given here; in the data, active = GI50 up to about 1.1 µM and inactive = higher.

Columns and labels:
Experiment in all cases: NCI-60 cell line screen, 48 h
A498 = system: A498
A549 = system: A549
ACHN = system: ACHN
BT-549 = system: BT-549
CAKI-1 = system: CAKI-1
COLO 205 = system: COLO 205
DU-145 = system: DU-145
EKVX = system: EKVX
HCC 2998 = system: HCC 2998
HCT-116 = system: HCT-116
HCT-15 = system: HCT-15
HOP-62 = system: HOP-62
HOP-92 = system: HOP-92
HT-29 = system: HT-29
Hs-578T = system: Hs-578T
K562 = system: K562
KM12 = system: KM12
LOX IMVI = system: LOX IMVI
M14 = system: M14
MCF7 = system: MCF7
MDA-MB-231 = system: MDA-MB-231
MDA-MB-435 = system: MDA-MB-435
MDA-N = system: MDA-N
MOLT-4 = system: MOLT-4
Malme-3M = system: Malme-3M
NCI-H226 = system: NCI-H226
NCI-H23 = system: NCI-H23
NCI-H522 = system: NCI-H522
NCI/ADR-RES = system: NCI/ADR-RES
OVCAR-4 = system: OVCAR-4
OVCAR-5 = system: OVCAR-5
OVCAR-8 = system: OVCAR-8
PC-3 = system: PC-3
SF-268 = system: SF-268
SF-295 = system: SF-295
SK-MEL-28 = system: SK-MEL-28
SK-MEL-2 = system: SK-MEL-2
SK-MEL-5 = system: SK-MEL-5
SK-OV-3 = system: SK-OV-3
SN12C = system: SN12C
SNB-19 = system: SNB-19
SNB-75 = system: SNB-75
SR = system: SR
T47D = system: T47D
TK-10 = system: TK-10
U-251 = system: U-251
UACC-257 = system: UACC-257
UACC-62 = system: UACC-62
UO-31 = system: UO-31
786-0 = system: 786-0
CCRF-CEM = system: CCRF-CEM
IGROV-1 = system: IGROV-1
NCI-H460 = system: NCI-H460
OVCAR-3 = system: OVCAR-3
RPMI-8226 = system: RPMI-8226
RXF 393 = system: RXF 393
SF-539 = system: SF-539
SW-620 = system: SW-620

O1C2C1C1OC1C1OC1C1OC21 (configuration not stated)
GI50 (A498): > 100 µM (inactive)
GI50 (A549): > 100 µM (inactive)
GI50 (ACHN): > 100 µM (inactive)
GI50 (BT-549): > 100 µM (inactive)
GI50 (CAKI-1): > 100 µM (inactive)
GI50 (COLO 205): > 100 µM (inactive)
GI50 (DU-145): > 100 µM (inactive)
GI50 (EKVX): > 100 µM (inactive)
GI50 (HCC 2998): > 100 µM (inactive)
GI50 (HCT-116): > 100 µM (inactive)
GI50 (HCT-15): > 100 µM
GI50 (HOP-62): > 100 µM (inactive)
GI50 (HOP-92): > 100 µM (inactive)
GI50 (HT-29): > 100 µM (inactive)
GI50 (Hs-578T): > 100 µM (inactive)
GI50 (K562): > 100 µM (inactive)
GI50 (KM12): > 100 µM (inactive)
GI50 (LOX IMVI): > 100 µM (inactive)
GI50 (M14): > 100 µM (inactive)
GI50 (MCF7): > 100 µM (inactive)
GI50 (MDA-MB-231): > 100 µM (inactive)
GI50 (MDA-MB-435): > 100 µM (inactive)
GI50 (MDA-N): > 100 µM (inactive)
GI50 (MOLT-4): > 100 µM (inactive)
GI50 (Malme-3M): > 100 µM (inactive)
GI50 (NCI-H226): > 100 µM (inactive)
GI50 (NCI-H23): > 100 µM (inactive)
GI50 (NCI-H522): > 100 µM (inactive)
GI50 (NCI/ADR-RES): > 100 µM (inactive)
GI50 (OVCAR-4): > 100 µM (inactive)
GI50 (OVCAR-5): > 100 µM (inactive)
GI50 (OVCAR-8): > 100 µM (inactive)
GI50 (PC-3): > 100 µM (inactive)
GI50 (SF-268): > 100 µM (inactive)
GI50 (SF-295): > 100 µM (inactive)
GI50 (SK-MEL-28): > 100 µM (inactive)
GI50 (SK-MEL-2): > 100 µM (inactive)
GI50 (SK-MEL-5): > 100 µM (inactive)
GI50 (SK-OV-3): > 100 µM (inactive)
GI50 (SN12C): > 100 µM (inactive)
GI50 (SNB-19): > 100 µM (inactive)
GI50 (SNB-75): 11.6 µM (inactive)
GI50 (SR): > 100 µM (inactive)
GI50 (T47D): > 100 µM (inactive)
GI50 (TK-10): > 100 µM (inactive)
GI50 (U-251): > 100 µM (inactive)
GI50 (UACC-257): > 100 µM (inactive)
GI50 (UACC-62): > 100 µM (inactive)
GI50 (UO-31): > 100 µM (inactive)

C/C(=C\c1ccccc1)C(=O)NCc1ccc(C(=O)NCCc2ccccc2)cc1
GI50 (786-0): 20.6 µM (inactive)
GI50 (A498): > 66.5 µM (inactive)
GI50 (A549): > 100 µM (inactive)
GI50 (ACHN): > 94.6 µM (inactive)
GI50 (BT-549): 28.9 µM (inactive)
GI50 (CAKI-1): > 93.3 µM (inactive)
GI50 (CCRF-CEM): > 100 µM (inactive)
GI50 (COLO 205): > 100 µM (inactive)
GI50 (DU-145): > 100 µM (inactive)
GI50 (EKVX): 22.5 µM (inactive)
GI50 (HCC 2998): > 100 µM (inactive)
GI50 (HCT-116): 43.4 µM (inactive)
GI50 (HCT-15): > 100 µM
GI50 (HOP-62): 3 µM (inactive)
GI50 (HOP-92): 18.4 µM (inactive)
GI50 (HT-29): 2.67 µM (inactive)
GI50 (Hs-578T): 7.16 µM (inactive)
GI50 (IGROV-1): 35.8 µM (inactive)
GI50 (K562): > 100 µM (inactive)
GI50 (KM12): > 100 µM (inactive)
GI50 (LOX IMVI): > 100 µM (inactive)
GI50 (M14): > 100 µM (inactive)
GI50 (MCF7): > 100 µM (inactive)
GI50 (MDA-MB-231): > 43.2 µM (inactive)
GI50 (MDA-MB-435): > 100 µM (inactive)
GI50 (MDA-N): > 100 µM (inactive)
GI50 (MOLT-4): > 100 µM (inactive)
GI50 (Malme-3M): > 100 µM (inactive)
GI50 (NCI-H226): 17.9 µM (inactive)
GI50 (NCI-H23): > 52.4 µM (inactive)
GI50 (NCI-H460): > 100 µM (inactive)
GI50 (NCI-H522): > 100 µM (inactive)
GI50 (NCI/ADR-RES): > 39.9 µM (inactive)
GI50 (OVCAR-3): > 100 µM (inactive)
GI50 (OVCAR-4): > 100 µM (inactive)
GI50 (OVCAR-5): > 96.2 µM (inactive)
GI50 (OVCAR-8): 3.47 µM (inactive)
GI50 (PC-3): > 100 µM (inactive)
GI50 (RPMI-8226): > 100 µM (inactive)
GI50 (RXF 393): 13.8 µM (inactive)
GI50 (SF-268): 4.37 µM (inactive)
GI50 (SF-295): 27.7 µM (inactive)
GI50 (SF-539): 10.1 µM (inactive)
GI50 (SK-MEL-28): > 100 µM (inactive)
GI50 (SK-MEL-2): 20.9 µM (inactive)
GI50 (SK-MEL-5): > 100 µM (inactive)
GI50 (SK-OV-3): 12.2 µM (inactive)
GI50 (SN12C): 21.2 µM (inactive)
GI50 (SNB-19): 9.42 µM (inactive)
GI50 (SNB-75): 3.95 µM (inactive)
GI50 (SR): > 100 µM (inactive)
GI50 (SW-620): > 100 µM (inactive)
GI50 (T47D): > 89.7 µM (inactive)
GI50 (TK-10): 41.9 µM (inactive)
GI50 (U-251): > 51.8 µM (inactive)
GI50 (UACC-257): > 100 µM (inactive)
GI50 (UACC-62): > 100 µM (inactive)
GI50 (UO-31): 22 µM (inactive)
